What was measured:
Type in all cases: biochemical
JAK3 = molecular target: T1, JAK3 (Homo sapiens, UniProt P52333); experiment: JAK3 Inhibition Assay (Omnia kinase fluorescence peptide substrate); settings: averaged IC50 ranges; 10 μM (Km app) or 1 mM ATP, 2.5 nM JAK3
T1 construct: purchased Invitrogen Corporation, Carlsbad, Calif; IVGN PV4080
T1 sequence (P52333 1-1124): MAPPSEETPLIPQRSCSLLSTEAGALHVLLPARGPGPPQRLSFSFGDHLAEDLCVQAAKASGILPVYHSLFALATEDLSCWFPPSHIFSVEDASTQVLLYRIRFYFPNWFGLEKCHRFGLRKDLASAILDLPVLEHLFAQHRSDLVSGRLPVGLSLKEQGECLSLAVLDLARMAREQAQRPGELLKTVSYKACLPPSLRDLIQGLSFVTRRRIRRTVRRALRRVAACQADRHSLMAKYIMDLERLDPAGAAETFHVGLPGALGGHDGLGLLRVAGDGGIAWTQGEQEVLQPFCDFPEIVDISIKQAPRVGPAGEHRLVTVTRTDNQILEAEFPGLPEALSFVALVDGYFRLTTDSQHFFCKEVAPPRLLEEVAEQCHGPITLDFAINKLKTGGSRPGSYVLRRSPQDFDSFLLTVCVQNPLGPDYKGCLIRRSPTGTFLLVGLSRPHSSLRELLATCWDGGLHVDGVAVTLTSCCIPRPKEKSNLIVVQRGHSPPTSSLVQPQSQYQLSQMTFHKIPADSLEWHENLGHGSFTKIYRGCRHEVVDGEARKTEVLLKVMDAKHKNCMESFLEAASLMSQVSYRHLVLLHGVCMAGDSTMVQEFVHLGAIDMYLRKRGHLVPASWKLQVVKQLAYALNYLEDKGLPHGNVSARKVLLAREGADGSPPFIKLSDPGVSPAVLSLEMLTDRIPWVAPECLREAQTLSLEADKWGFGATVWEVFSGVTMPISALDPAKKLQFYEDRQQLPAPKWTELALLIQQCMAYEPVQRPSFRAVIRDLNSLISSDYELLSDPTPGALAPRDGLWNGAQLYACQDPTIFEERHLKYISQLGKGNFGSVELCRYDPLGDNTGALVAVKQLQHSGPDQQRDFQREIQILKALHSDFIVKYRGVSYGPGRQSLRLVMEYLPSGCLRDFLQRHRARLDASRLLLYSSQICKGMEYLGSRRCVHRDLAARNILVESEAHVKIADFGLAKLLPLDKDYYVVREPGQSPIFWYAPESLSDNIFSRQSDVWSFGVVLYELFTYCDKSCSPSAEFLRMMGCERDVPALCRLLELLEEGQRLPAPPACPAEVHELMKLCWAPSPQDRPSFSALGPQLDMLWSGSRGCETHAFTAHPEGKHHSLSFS
Summary of the method: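 IC50 is the concentration giving 50 percent of control on a 4-parameter logistic fit of 10-point, 3-fold dilutions from a 10 μM top dose, at 2% final DMSO. Kinetic Sox fluorescence (360/485 nm) was monitored every 50 s for 45 min. Mix: JAK3 2.5 nM, Omnia Y7 peptide 10 μM, ATP 10 μM (Km app) or 1 mM, in HEPES pH 7.4 buffer with MgCl2, Triton X-100 and DTT.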

JAK2 = molecular target: T2, JAK2 (Homo sapiens, UniProt O60674); experiment: JAK2 Inhibition Assay (Omnia kinase fluorescence peptide substrate); settings: averaged IC50 ranges; 25 μM (Km app) or 1 mM ATP, 5 nM JAK2
T2 construct: purchased Invitrogen Corporation, Carlsbad, Calif; IVGN PV4288

[1] = tested on: Tyk2, JAK1, JAK2 and JAK3; experiment: in vitro assays (Examples A, B, C and D) taken together; settings: Reference Examples; statement in words
Description: The assays described in Examples A, B, C and D for the determination of Tyk2, JAK1, JAK2 and JAK3 kinase activity, respectively, utilized the Omnia® Kinase fluorescence peptide substrate-based technology (Invitrogen). The specific components of the assay mixture are described in Examples A, B, C and D. In these assays, Mg^2+ is chelated upon phosphorylation of the Omnia peptide by the kinase to form a bridge between the chelation-enhanced fluorophore Sox and the phosphate, resulting in an increase in fluorescence emission at 485 nm when excited at […]. The reactions were therefore read at excitation 360 nm and emission was measured at 485 nm every 50 seconds for 45 minutes using a PerkinElmer EnVision Multilabel Plate Reader.
The final buffer conditions for Tyk2, JAK1, JAK2, and JAK3 assays were as follows: 25 mM HEPES, pH 7.4, 10 mM MgCl2, 0.01% Triton X-100 and 1 mM DTT.
Compounds were prepared at 50× the final concentration in DMSO by conducting 3-fold serial dilutions from a 500-μM intermediate dilution to give a 10-point dosing curve having a high dose of 10 μM. Two-μL aliquots of these were transferred to a fresh plate for a ten-fold intermediate dilution with assay buffer. Five-μL aliquots of the diluted compounds were then transferred to 20-μL of assay mixtures described in Examples A, B, C and D for a final concentration of DMSO of 2%. A standard or reference compound was typically included on each assay plate to validate that plate. For each plate, percent of control (POC) values were calculated for each well according to the following equation: […]
Compounds of Formula I were screened for their ability to inhibit Tyk2 using the general enzyme inhibition assay method, in which the assay mixture contained 10 μM (Km app) or 1 mM ATP, 8 μM Omnia® Y12 peptide (Catalog #IVGN KPZ3121C; Invitrogen Corporation, Carlsbad, Calif.) and 2 nM Tyk2 in a total volume of 20 μL. Human Tyk2 kinase domain, comprising amino acids 886 to 1187 with 10 additional histidine residues (histidine tag) on the carboxy terminus, was expressed and purified from bacculovirus in-house at Array BioPharma Inc. (Boulder, Colo.). The histidine tag was cleaved after purification using standard conditions.
Compounds of Formula I were screened for their ability to inhibit JAK1 using the general enzyme inhibition assay method, in which the assay mixture contained 40 μM (Km app) or 1 mM ATP, 8 μM Omnia® Y12 peptide (Catalog #IVGN KPZ3121C; Invitrogen Corporation, Carlsbad, Calif.) and 15 nM JAK1 in a total volume of 20 μL. JAK1 was purchased from Invitrogen Corporation, Carlsbad, Calif. (catalog #IVGN PV4775).
(§1) Compounds of Formula I were screened for their ability to inhibit JAK2 using the general enzyme inhibition assay method, in which the assay mixture contained 25 μM (Km app) or 1 mM ATP, 10 μM Omnia® Y7 peptide (Catalog #IVGN KNZ3071C, Invitrogen Corporation, Carlsbad, Calif.) and 5 nM JAK2 in a total volume of 20 μL. JAK2 was purchased from Invitrogen Corporation, Carlsbad, Calif. (catalog #IVGN PV4288).
as §1, with “JAK3” for “JAK2”, “10” for “25”, “2.5” for “5”, “PV4080).” for “PV4288).”

JAK1 = molecular target: T3, JAK1 (Homo sapiens, UniProt P23458); experiment: JAK1 Inhibition Assay (Omnia kinase fluorescence peptide substrate); settings: averaged IC50 ranges; 40 μM (Km app) or 1 mM ATP, 15 nM JAK1
T3 construct: purchased Invitrogen Corporation, Carlsbad, Calif; IVGN PV4775
Summary of the method: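 15 nM JAK1, 8 μM Omnia Y12 peptide, 40 μM (Km app) or 1 mM ATP; 25 mM HEPES pH 7.4, 10 mM MgCl2, 2% DMSO. Fluorescence (ex 360/em 485 nm) read every 50 s over 45 min. IC50 by 4-parameter fit of percent of control, top dose 10 μM.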

Human Tyk2 kinase domain = molecular target: T4, Human Tyk2 kinase domain (Homo sapiens, UniProt P29597); experiment: Tyk2 Inhibition Assay (Omnia kinase fluorescence peptide substrate); settings: averaged IC50 ranges; 10 μM (Km app) or 1 mM ATP, 2 nM Tyk2
T4 construct: comprising amino acids 886 to 1187; His10 (10 histidine residues) (C, cleaved yes); made in house
T4 sequence (P29597 886-1187): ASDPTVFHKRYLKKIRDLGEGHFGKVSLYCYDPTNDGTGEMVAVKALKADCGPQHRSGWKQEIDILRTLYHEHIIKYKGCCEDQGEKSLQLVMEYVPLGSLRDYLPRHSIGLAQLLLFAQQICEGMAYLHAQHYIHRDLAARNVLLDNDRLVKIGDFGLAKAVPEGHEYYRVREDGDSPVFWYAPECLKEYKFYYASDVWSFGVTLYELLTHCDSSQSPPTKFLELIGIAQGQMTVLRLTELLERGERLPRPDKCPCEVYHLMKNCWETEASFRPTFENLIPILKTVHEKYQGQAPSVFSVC
Summary of the method: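 Phosphorylation of 8 μM Omnia Y12 peptide followed kinetically by Sox fluorescence, ex 360/em 485 nm, every 50 s for 45 min. Enzyme: 2 nM Tyk2 kinase domain (aa 886–1187, His tag removed); ATP at 10 μM (Km app) or 1 mM; buffer HEPES pH 7.4 with MgCl2, Triton X-100, DTT. 10-point curves up to 10 μM, IC50 from 4-parameter logistic fit.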

T3 sequence (P23458 whole entry): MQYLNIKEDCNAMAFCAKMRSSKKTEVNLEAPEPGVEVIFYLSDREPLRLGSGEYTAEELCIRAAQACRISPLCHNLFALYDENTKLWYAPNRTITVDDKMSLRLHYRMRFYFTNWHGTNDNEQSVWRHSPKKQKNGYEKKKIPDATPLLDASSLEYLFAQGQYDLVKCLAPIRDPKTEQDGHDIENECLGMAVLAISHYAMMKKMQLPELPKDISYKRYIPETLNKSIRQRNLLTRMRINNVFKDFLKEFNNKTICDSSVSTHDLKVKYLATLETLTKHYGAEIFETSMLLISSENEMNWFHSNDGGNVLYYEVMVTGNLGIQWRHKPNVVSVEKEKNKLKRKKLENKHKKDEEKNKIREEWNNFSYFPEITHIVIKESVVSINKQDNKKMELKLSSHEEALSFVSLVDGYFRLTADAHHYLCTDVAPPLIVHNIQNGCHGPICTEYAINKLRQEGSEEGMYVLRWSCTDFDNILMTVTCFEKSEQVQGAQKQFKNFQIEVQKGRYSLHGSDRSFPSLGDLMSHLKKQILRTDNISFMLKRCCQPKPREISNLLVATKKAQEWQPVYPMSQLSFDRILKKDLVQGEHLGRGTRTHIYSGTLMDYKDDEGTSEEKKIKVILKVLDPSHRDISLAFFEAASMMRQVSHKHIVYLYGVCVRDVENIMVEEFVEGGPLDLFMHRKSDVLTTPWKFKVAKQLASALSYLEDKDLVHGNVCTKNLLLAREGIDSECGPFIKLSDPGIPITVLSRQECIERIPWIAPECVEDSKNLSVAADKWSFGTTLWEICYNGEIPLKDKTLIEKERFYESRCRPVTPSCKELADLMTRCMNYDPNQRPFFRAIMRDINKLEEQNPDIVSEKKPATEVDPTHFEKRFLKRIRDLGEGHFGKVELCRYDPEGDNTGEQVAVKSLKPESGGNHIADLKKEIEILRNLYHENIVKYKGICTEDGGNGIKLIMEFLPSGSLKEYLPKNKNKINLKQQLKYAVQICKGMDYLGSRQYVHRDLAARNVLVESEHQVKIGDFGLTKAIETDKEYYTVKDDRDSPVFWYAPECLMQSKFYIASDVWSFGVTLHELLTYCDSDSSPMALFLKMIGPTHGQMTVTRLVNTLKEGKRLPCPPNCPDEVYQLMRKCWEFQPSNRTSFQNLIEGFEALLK
T2 sequence (O60674 whole entry): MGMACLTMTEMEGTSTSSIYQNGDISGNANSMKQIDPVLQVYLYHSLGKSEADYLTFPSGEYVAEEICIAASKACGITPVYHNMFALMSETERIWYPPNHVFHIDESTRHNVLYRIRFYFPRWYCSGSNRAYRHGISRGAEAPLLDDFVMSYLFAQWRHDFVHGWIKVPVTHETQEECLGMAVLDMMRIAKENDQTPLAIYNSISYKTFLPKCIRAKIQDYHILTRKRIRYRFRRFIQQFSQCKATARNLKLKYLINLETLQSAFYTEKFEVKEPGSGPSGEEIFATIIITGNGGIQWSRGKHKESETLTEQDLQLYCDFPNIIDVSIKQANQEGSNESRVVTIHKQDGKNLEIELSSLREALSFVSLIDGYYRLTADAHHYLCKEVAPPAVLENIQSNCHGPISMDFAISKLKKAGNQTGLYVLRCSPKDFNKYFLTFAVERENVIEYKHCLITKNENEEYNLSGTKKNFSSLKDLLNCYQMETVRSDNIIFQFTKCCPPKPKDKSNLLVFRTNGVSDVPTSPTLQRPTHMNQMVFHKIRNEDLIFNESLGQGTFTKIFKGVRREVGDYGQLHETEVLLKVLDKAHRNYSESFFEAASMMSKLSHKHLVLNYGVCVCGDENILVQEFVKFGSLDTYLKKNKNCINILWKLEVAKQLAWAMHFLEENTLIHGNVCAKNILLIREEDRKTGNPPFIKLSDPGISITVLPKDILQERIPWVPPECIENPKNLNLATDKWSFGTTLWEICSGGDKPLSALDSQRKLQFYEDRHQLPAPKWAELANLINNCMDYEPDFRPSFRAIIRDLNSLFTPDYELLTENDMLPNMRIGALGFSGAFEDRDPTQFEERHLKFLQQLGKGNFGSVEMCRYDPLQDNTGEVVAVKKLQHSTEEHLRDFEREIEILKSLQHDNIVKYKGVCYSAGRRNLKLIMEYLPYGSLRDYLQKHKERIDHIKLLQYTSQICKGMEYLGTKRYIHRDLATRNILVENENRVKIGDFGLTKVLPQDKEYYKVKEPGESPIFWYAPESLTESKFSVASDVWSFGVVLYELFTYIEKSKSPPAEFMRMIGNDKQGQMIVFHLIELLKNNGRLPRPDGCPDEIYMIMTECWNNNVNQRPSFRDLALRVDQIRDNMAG

SMILES	IC50 (JAK3) [nM]	IC50 (JAK2) [nM]	activity in the in vitro assays [1]	IC50 (JAK1) [nM]	IC50 (Human Tyk2 kinase domain) [nM]
COCCC(C1CCOC1)n1cc(-c2nc(-c3cnn(C)c3)cc3nccn23)cn1 (centres unmarked) [Example 75, 5-(1-(3-methoxy-1-(tetrahydrofuran-3-yl)propyl)-1H-pyrazol-4-yl)-7-(1-methyl-1H-pyrazol-4-yl)imidazo[1,2-c]pyrimidine]	> 1000	> 1000	weakly active	> 1000	> 1000
CN(C)C(=O)N1CC(CCF)(n2cc(-c3nc(-c4cnn(C)c4)cc4nccn34)cn2)C1 [Example 93, 3-(2-fluoroethyl)-N,N-dimethyl-3-(4-(7-(1-methyl-1H-pyrazol-4-yl)imidazo[1,2-c]pyrimidin-5-yl)-1H-pyrazol-1-yl)azetidine-1-carboxamide]	> 1000	> 1000	weakly active	> 1000	> 1000
CCN1CC(CCF)(n2cc(-c3nc(-c4cnn(C)c4)cc4nccn34)cn2)C1 [Example 84, 5-(1-(1-ethyl-3-(2-fluoroethyl)azetidin-3-yl)-1H-pyrazol-4-yl)-7-(1-methyl-1H-pyrazol-4-yl)imidazo[1,2-c]pyrimidine]	> 1000	> 1000	weakly active	> 1000	> 1000
CCNC(=O)N1CC(CCF)(n2cc(-c3nc(-c4cnn(C)c4)cc4nccn34)cn2)C1 [Example 92, N-ethyl-3-(2-fluoroethyl)-3-(4-(7-(1-methyl-1H-pyrazol-4-yl)imidazo[1,2-c]pyrimidin-5-yl)-1H-pyrazol-1-yl)azetidine-1-carboxamide]	> 1000	> 1000	weakly active	> 1000	> 1000

From patent US20140228349A1, “5,7-SUBSTITUTED-IMIDAZO[1,2-C]PYRIMIDINES” (Array BioPharma Inc., priority 2011, published 2014)
